How the values were obtained:
IL-1β = assay: RIA-Kit IL-1 quantification in human monocyte cultures; type: cell-based
Protocol: (§1) Mononuclear cells are obtained from the blood of healthy volunteers via centrifugation and cultivated on tissue culture dishes with test compound at varying concentrations [Schnyder et al., J. Immunol., 138, 496-503 (1987)]. The non-adherent lymphocytes are removed after 4 hours by washing several times. Fresh medium, test compound and lipopolysaccharide (LPS) as stimulant are added and the monocytes incubated for further 19 hours. The pooled culture media are diluted 1:10 (v:v) with fresh medium and added to confluent rabbit chondrocytes. MP activity in the chondrocyte culture medium is assayed after a further 2 days. COMPOUNDS OF THE INVENTION, in particular compounds D2 and K1, are active in suppressing monokine release in the above test method at concentrations of the order of from about 30 to about 100 μM. Thus determined ED50 S for the compounds D2 and K1 each in substantially pure Z-isomeric form in a series of 3 or 7 separate experiments each with 3 parallel determinations are, for both compounds, of the order of 60 to 100 μM.
The procedures of example 1.1.b. above are repeated and IL-1 concentrations in recovered, undiluted culture medium determined employing a CISTRON IL-1 radioimmuno assay kit (the CISTRON kit is obtainable from Cistron, 10, Bloomfield Avenue, P.O. Box 2004, Pine Brook, NJ 07 058 USA. It is IL-1β specific and recognises both intra- and extra-cellular material).

recombinant human IL-2 = assay: Recombinant human IL-2 induced mouse thymocyte proliferation; type: cell-based; details: 10 ng/ml rh IL-2
Protocol: Lymphocyte proliferation is the standard test for monokine activity. It is highly sensitive, though relatively unspecific, with IL-2, phorbol myristate acetate, concanavalin A' g-type-prostaglandin and indomethacin-nall effecting disturbance. Human monocyte culture media are prepared as described under I.I.b. above, diluted 1:10, 1:20 and 1:40 (v:v), and added to […] (obtained from C3H/HeJ mice) Dulbecco's modified Eagle's medium, containing 20 mM hydroxyethyl-piperazin-ethane-sulfonic acid, 12 mM NaHCO3, 2 mM glutamine, 2% foetal bovine serum, 10 μM 2-mercaptoethanol, […] and antibiotics. The cells are incubated for 2 days in 96-well culture plates and the proliferation rate determined using a ^3 H-thymidine pulse (1 μC/well) during the final 6 hours. The incorporated radioactivity is collected on filter paper and counted. […] Thus determined ED50 s for the compounds D2 and K1 each in substantially pure Z-isomeric form in a series of 2 separate experiments each with 3 parallel determinations are of the order of 30 μM
In order to rule out an antagonistic effect or a direct influence of the COMPOUNDS OF THE INVENTION on the proliferation of mouse thymocytes which are used above in the LAF-test, the effect of the COMPOUNDS OF THE INVENTION on the incorporation of ^3 H-thymidine Is determined after thymocyte stimulation with recombinant human IL-1 or IL-2.

[1] = system: psoriatic arthritis or seronegative spondylarthrosis or osteoarthrosis; assay: Clinical trial IV: degenerative joint disease; type: in vivo, human; details: ca. 200 to 1200 mg p.o./day, 8 weeks
Protocol: COMPOUND OF THE INVENTION, e.g. compound D2 or K1 in substantially pure Z-isomeric form, is administered at dosages of from ca. 200 to 1200 mg/p.o./day, once or in divided dosages up to 4×daily for 8 weeks. The subjects are examined at a regular interval of 2 weeks for disease progression on parameters such as pain sensation at the joints, evaluation of the functional capacity according to Steinbrocker, hand grip strength or Richtie Index.

adjuvant arthritis = assay: Disease modifying activity in an animal model of rheumatoid arthritis (adjuvant arthritis); type: in vivo, rat; details: substantially pure Z-isomeric form
Protocol: Following induction of adjuvant arthritis in 48 adult female rats, the test compound is administered orally for 40 days. Articular swelling and bone densitometry are measured at days 10, 20, 30 and 40 and compared with control animals receiving placebo. In addition, cartilage glycosaminoglycans (GAG) are measured in femoral condyles removed on completion of the treatment period. α2 -Macroglobulin is determined in serum on days 0, 3, 6, 9, 16 and 22.
The procedure for in vivo estimation of bone density in adult rats as used in the above test method is based on the radiographic densitometric method described by Albanese et al. in J. Amer. Ger. Soc. 17, 142-153 (1969). A longitudinal bone survey is conducted in the arthritic rats during the treatment with the test substance and compared with untreated arthritic rats and control animals. In vivo quantitative radiographic scanning is performed taking the trabecular mass as the parameter. […] Because of the characteristics of the system (image darkening representing increased Relative Optical Density) the recorded values are expressed as (1-x) where x Is the experimentally measured ROD in order to conform to the biological effect of X-rays on bone tissue (i.e. film darkening indicates decrease in bone density). […]

IL-1 [2] = assay: Effect on IL-1 synthesis and release (supernatants, homogenates, lysates of human monocytes); type: cell-based; details: chondrocyte bioassay and RIA
Protocol: 0.3 ml Phosphate-buffered saline, containing 1 % heat-in-activated AB-human serum, is added to washed adherent human monocytes and the cells are detached using a rubber-policeman. The solution containing the cells is then transferred to two other wells belonging to the same group. This procedure is repeated three times. The final pooled suspension (0.9 ml) is homogenized using a Dounce homogenizer (Kontes Co, Vineland, NJ) by five times 7 strokes with the B-pestle.
The lysate is prepared by adding to the washed human monocyte monolayers 0.3 ml 0.01 % digitonin in water.
50 μl homogenate is diluted to 500 μl with medium and added to confluent chondrocytes to monitor the metalloproteinase inducing activity as a measure of IL-I content.
The content of IL-1 was also determined in the culture media and the cell homogenates and cell lysates using the RIA-test (see 1.3.).

human monocytes = assay: LAF-test (thymocyte proliferation), monokine production by human monocytes; type: cell-based; details: Monocyte, substantially pure Z-isomeric form, 2 separate experiments, 3 parallel determinations, read-out: ED50 (inhibition of monokine production)
Protocol: as §1
Lymphocyte proliferation is the standard test for monokine activity. […] The cells are incubated for 2 days in 96-well culture plates and the proliferation rate determined using a ^3 H-thymidine pulse (1 μC/well) during the final 6 hours. The incorporated radioactivity is collected on filter paper and counted. […]

IL-1 [3] = assay: IL-1 induced secretion of metalloproteinase (MP) in chondrocytes; type: cell-based; details: 2 days incubation
Protocol: Furthermore the influence on IL-1 induced secretion of MP is determined using chondrocytes as a target system for IL-1. IL-1 (Genzyme Corporation,USA) is added with or without a COMPOUND OF THE INVENTION or Dexamethasone (control) to chondrocytes and the activity or metalloproteinase is determined in the supernatant media of 2 days incubation period.

[4] = CISTRON IL-1 radioimmuno assay, human monocytes

COC1=Cc2ccccc2/C(=C/C(=O)O)c2ccsc21 [Compound D2, [10-Methoxy-4H-benzo[4,5]cyclohepta[1,2-b]thiophen-4-ylidene]-acetic acid]
extra-cellular IL-1 level (IL-1β; [4]): extra-cellular content is reduced significantly
intracellular IL-1 level (IL-1β; [4]): remain substantially unaffected
IC50 (IL-1β; Homo sapiens, Monocyte, 19 h, substantially pure Z-isomeric form, 2-8 experiments, 3 parallel determinations, read-out: ED50 for extra-cellular IL-1 level suppression): ~40 µM
concentration dependency of influence on rh IL-2 induced proliferation (recombinant human IL-2): no concentration dependency is detectable
influence on recombinant human IL-2 induced proliferation (recombinant human IL-2; 3H-thymidine incorporation, mouse thymocytes): no significant influence
condition (degenerative joint disease) [1]: improvement in condition after the 8 week treatment period
protective effect on cartilage and bone (adjuvant arthritis; rats with adjuvant arthritis): show a protective effect on cartilage and bone in rats with adjuvant arthritis
disease modifying activity (adjuvant arthritis; especially after 30 days treatment): exhibit disease modifying activity especially after a period of 30 days treatment
levels of IL-1 in the supernatant media (IL-1 [2]): significantly reduce the levels of IL-1 in the supernatant media
mean cellular content of IL-1 (IL-1 [2]; homogenates and lysates): only slightly reduced or remains unchanged
IC50 (human monocytes): ~30 µM
influence on IL-1 induced secretion of MP (IL-1 [3]): do not influence the IL-1 induced secretion of MP

Source: US4956381A, “Treating tissue calcium depletion or degenerative processes in bone or cartilage” (Sandoz Ltd., priority 1987, dated 1990)
